Reference: patent US10413535B2, “Pharmaceutical compositions comprising an integrin ALPHA4 antagonist for use in treating ocular inflammatory conditions” (AXEROVISION, INC., priority 2015, dated 2019)

How the values were obtained:
[1] = system: C57BL/6 mice subjected to desiccating stress; assay: Corneal OGD staining in murine desiccating stress model; assay type: in vivo, mouse; conditions: topical bilateral 2 times per day, 5 days DS, vs vehicle (GW559090 1-30 mg/mL; Dex 0.1%)
Experimental: (§1) Female C57BL/6 mice, aged 6 to 8 weeks, were subjected to DS for 5 days (DS5) as described previously (de Paiva et al., 2006b; Niederkorn et al., 2006). Topical bilateral treatment with 1 eye drop per eye (2 μL volume) or subcutaneous injection (4 μL volume), 2 times per day, was initiated on day 1 concurrently with DS and continued through day 4. Treatment with the compound of formula I or dexamethasone phosphate 0.1% was compared to correspondingly treated vehicle controls. Mice were randomized to receive one of the test articles. Control mice were kept in a non-stressed (NS) environment maintained at 50-75% relative humidity without exposure to airflow or scopolamine and were not treated with test or control article. Treatment effects were assessed on corneal staining with Oregon Green Dextran (OGD); expression of inflammatory markers in ocular surface tissues by real time PCR; cell population analysis in draining cervical lymph nodes by FACS analysis; conjunctival T cell infiltration by immunohistochemistry.
On the morning of the 5th day, mice received one s.c. dose of scopolamine. Two hours later corneal staining was assessed using Oregon Green Dextran (OGD-488), which is a conjugated fluorescent dye of a 70 kDa molecular size (Invitrogen-Molecular Probes) as previously described (de Paiva et al., 2006b). The procedure consisted of instillation of 0.5 μL of OGD on the cornea using a glass capillary pipette, 1 minute before euthanasia. Mice were euthanized by inhalation of isoflurane gas followed by cervical dislocation. Eyes were then rinsed with 2 mL of BSS. Excess liquid was carefully blotted from the ocular surface with filter papers without touching the cornea. Digital pictures of both eyes were taken under 470 nm excitation and 488 nm emission wave lengths using a Nikon SMZ-1500 stereo microscope, with an exposure time of 2 seconds. Both eyes from each animal were evaluated; the right eye always first followed by the left eye. The mean intensity in the central cornea was evaluated from digital images using NIS Elements (version 3.0) by placing a fixed region of interest (a 2-mm diameter circle) on the central cornea. The mean intensity of the fluorescence was read by the software and stored in a database (Excel, Microsoft). This fluorescence measurement in the central ring was done independently by 2 masked observers, for each mouse eye. By the conclusion of the experiment, results were averaged from both observers using all data collected during all study weeks (Excel, Microsoft). Results are presented as geometric mean±95% confidence interval of gray levels.
Due to skewed distribution of OGD data, the analysis was done on the log 10 scale to make the data more normally distributed. Log 10 OGD data was averaged across two observers and the left and right eyes. The mixed effects ANOVA model included treatment group as a fixed effect and week as a random effect. 95% and 99% confidence intervals were constructed for the disease (5 day DS vs untreated group kept in separate vivarium) and compound treatment effects (treatment vs vehicle). As these comparisons were all pre-planned (comparing each treatment to its vehicle group), no adjustment was made for multiplicity. […] T cell density was calculated for each section and averaged across sections for each animal. […]

[2] = system: cells of draining cervical lymph nodes; assay: Flow cytometry of draining cervical lymph nodes, desiccating stress 1 day; assay type: in vivo, mouse; conditions: 1 day DS
Experimental: as §1
Cervical draining lymph nodes (CLN) were surgically excised, placed in a round culture plate with ˜8 mL of complete RPMI media and smashed between two frosted slides.
Single-cell suspensions of CLN from C57BL/6 mice, treated under DS conditions for 1 day, were prepared, centrifuged and sequentially filtered, as previously described (de Paiva et al., 2009a). Subsequently 1.0 mL of ACT solution was added for 30 seconds followed by 2.0 mL of complete RPMI. The cells were once again centrifuged and the supernatant aspirated. Cells were then re-suspended in 2.0 mL of complete RPMI and prepared for counting. Ten μL of Trypan Blue were used for counting and the cells were divided in tubes at 1×10^6 cells/mL. Subsequently, the cells were incubated on ice in 20 μL unconjugated anti-mouse CD16/CD32 (BD Pharmingen, San Diego, Calif.) followed by 80 μL of directly conjugated primary antibody or isotype. Finally the samples were washed with 1 mL PBS/1% FBS, centrifuged and re-suspend in 0.3 mL PBS/1% FBS containing 1:1000 of PI. The samples were stored at 4° C. until the analysis was performed with an A BD LSRII Benchtop cytometer. The data was analysed using BD Diva Software (BD Pharmingen) and FlowJo (TreeStar Inc).
Due to skewed distribution of OGD data, the analysis was done on the log 10 scale to make the data more normally distributed. Log 10 OGD data was averaged across two observers and the left and right eyes. The mixed effects ANOVA model included treatment group as a fixed effect and week as a random effect. 95% and 99% confidence intervals were constructed for the disease (5 day DS vs untreated group kept in separate vivarium) and compound treatment effects (treatment vs vehicle). As these comparisons were all pre-planned (comparing each treatment to its vehicle group), no adjustment was made for multiplicity. Log 10 scale treatment effect estimates and confidence limits were converted back to the original OGD scale, thus representing the estimate for the ratio of group geometric means and their confidence limits. For gene expression analysis, an unpaired T test was performed to compare drug and vehicle treatment. For flow cytometry analysis, a 2-way ANOVA with fixed treatment and random experiment effects was employed to test the treatment differences. The analysis was followed by Dunnett's multiple comparison procedure to compare each of the treatment groups with the vehicle group. T cell density was calculated for each section and averaged across sections for each animal. As the distribution of average cell density data was non-normal, it was analyzed by using non-parametric methods (Kruskal-Wallis procedure, followed by Dunn's multiple comparisons technique).
The draining CLN are an integral part of the immune cycle in DED (Pflugfelder et al., 2008; Schaumburg et al., 2011). […]

dry eye patients = conditions: delivered topically; cited from earlier work
[3] = system: multiple sclerosis and Crohn's disease; conditions: in vivo; cited from earlier work
[4] = topical treatment, vs vehicle (GW559090 30 mg/mL, 60 μg per eye; Dex 0.1%), listed as dexamethasone

C[C@@H]1C[C@H]2[C@@H]3CCC4=CC(=O)C=C[C@]4(C)[C@@]3(F)[C@@H](O)C[C@]2(C)[C@@]1(O)C(=O)COP(=O)(O)O [Dex, Dexamethasone phosphate, reference compound]
OGD intensity score (corneal staining / corneal barrier disruption) [1]: significantly improved
OGD intensity score (corneal staining / corneal barrier disruption) ([1]; listed as dexamethasone): decreased
CD4+ and CD8+ T cells in draining lymph nodes [2]: nor did treatment with the compound of formula I or dexamethasone decrease the number of T cells
CD11c+ dendritic cells in draining cervical lymph nodes [2, 4]: no significant effect
CD11c+/MHC II+ dendritic cells in draining cervical lymph nodes [2, 4]: no significant effect
CD11c+ dendritic cells in draining cervical lymph nodes ([2]; topical treatment, vs vehicle (GW559090 30 mg/mL, 60 μg per eye; Dex 0.1%), listed as dexamethasone phosphate): Neither systemic treatment with the compound of formula I nor topical treatment with dexamethasone phosphate produced the same effect

CS(=O)(=O)c1cccc(C[C@H](NC(=O)c2c(Cl)cc3c(c2Cl)CCN(C(=O)c2ccc4ccoc4c2)C3)C(=O)O)c1 [Lifitegrast, (2S)-2-[[2-(1-benzofuran-6-carbonyl)-5,7-dichloro-3,4-dihydro-1H-isoquinoline-6-carbonyl]amino]-3-(3-methylsulfonylphenyl)propanoic acid]
Corneal staining (dry eye patients): reduce
Symptoms (dry eye patients): improve

Natalizumab: an antibody directed against the integrin α4 subunit
Inflammation and clinical outcomes [3]: profoundly inhibit inflammation and improve clinical outcomes
